Test results reported in paper PMC10612255, “Discovery of novel 2,3,4,5-tetrahydrospiro[benzo[c]azepine-1,1’-cyclohexan]-5-ol derivatives as PARP-1 inhibitors” (BMC Chemistry, 2023).
“And” between values parts separate entries of the source, which are not always exact repeats. Equal entries are not always repeated.

Tests used:
PARP-2 = target: T1, PARP-2 (Homo sapiens, UniProt Q9UGN5); test: PARP-2 enzyme inhibition, colorimetric 96-well PARP assay kit; format: biochemical; details: in vitro enzyme, Mean ± SD
T1 construct: purchased BPS Bioscience, USA 80,581
T1 sequence (Q9UGN5 whole entry): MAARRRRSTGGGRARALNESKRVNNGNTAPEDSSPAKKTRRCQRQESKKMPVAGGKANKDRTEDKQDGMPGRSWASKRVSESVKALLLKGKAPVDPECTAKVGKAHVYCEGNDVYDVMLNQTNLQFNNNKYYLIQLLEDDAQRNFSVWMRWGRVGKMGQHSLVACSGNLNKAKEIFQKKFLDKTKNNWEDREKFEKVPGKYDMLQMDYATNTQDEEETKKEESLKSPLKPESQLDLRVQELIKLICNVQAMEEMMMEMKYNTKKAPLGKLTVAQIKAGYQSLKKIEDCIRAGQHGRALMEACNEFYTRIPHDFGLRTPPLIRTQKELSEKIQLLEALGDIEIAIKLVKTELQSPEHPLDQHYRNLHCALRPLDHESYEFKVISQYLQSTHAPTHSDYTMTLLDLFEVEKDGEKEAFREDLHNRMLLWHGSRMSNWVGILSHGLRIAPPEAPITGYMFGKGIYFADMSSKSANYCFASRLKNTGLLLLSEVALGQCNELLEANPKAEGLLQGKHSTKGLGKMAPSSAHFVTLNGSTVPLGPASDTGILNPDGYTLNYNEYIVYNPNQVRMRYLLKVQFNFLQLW
Procedure: (§4) The PARP-1 and PARP-2 inhibition assays were performed by the colorimetric 96-well PARP assay kits provided by BPS Bioscience, USA.

IOSE80 = test: Selectivity index (SI) versus IOSE80 normal cells; format: cell-based; details: SI = CC50/IC50; Human normal ovarian epithelial cells; means ± SD
A549 cells = test: Annexin-V/PI apoptosis assay by flow cytometry; format: cell-based, human; details: 48 h, P < 0.001
Procedure: PARP-1 inhibitors have been reported to induce further apoptosis of cancer cells, which was also confirmed by our previous studies. An annexin-V/PI binding assay was conducted in A549 cells to evaluate the capacity of compound 11b to induce apoptosis in cancer cells. […] (Fig. 4).
A549 cells were cultured in 6-well plates (3.0 × 10^5/well), and treated with DMSO (1%) or compound 11b for 48 h. The cells were then collected, washed with PBS, and stained with FITC-Annexin-V and PI (Promega Corporation, USA). Finally, the apoptosis of A549 cells was detected by flow cytometry (Becton Dickinson and Company, USA; FACS Calibur).

MCF-7 = test: MTT assay, anti-proliferative effect on MCF-7 cells; format: cell-based, human; details: Homo sapiens, MCF7, 72 h, read-out: IC50 MCF-7
Procedure: (§1) A549, OVCAR-3, HCT-116, and MCF-7 were purchased from American type culture collection (ATCC, USA). […] And all cell lines used in the experiment were tested for mycoplasma contamination every two weeks.
(§2) A549, OVCAR-3, HCT-116, and MCF-7 cells were seeded in 96-well plates, and then treated with target compounds for 72 h. Then, 20 µL MTT (5 mg/mL, in PBS) was added into each well, and dissolved in 150 µL DMSO after incubation for 4 h. Finally, the absorbance was measured with microplate reader (490 nm).

HCT-116 = test: MTT assay, anti-proliferative effect on HCT-116 cells; format: cell-based, human; details: Homo sapiens, HCT-116, 72 h, read-out: IC50 HCT-116
Procedure: as §1, §2

PAR = test: Western blot of PAR in A549 cells; format: cell-based, human; details: best effect at 4.0 µM, P < 0.001
Procedure: PARylation is a critical post-translational modification in which ADP-ribose units are added to a wide array of target proteins by PARP-1 [33–35]. PAR is the active product of PARP-1, and the biosynthesis of PAR will be reduced while PARP-1 is inhibited. Here, we used the western blot to evaluate PAR levels and PARP-1 expression.
(§3) The cells were plated in 6-well plates and incubated with different concentrations of compound 11b for a specified time. The cells were then collected, and tested using a standard western blot as described before.

PARP-1 = target: T2, PARP-1 (Homo sapiens, UniProt P09874); test: PARP-1 enzyme inhibition, colorimetric 96-well PARP assay kit; format: biochemical; details: in vitro enzyme, Mean ± SD
T2 construct: purchased BPS Bioscience, USA 80,580
T2 sequence (P09874 whole entry): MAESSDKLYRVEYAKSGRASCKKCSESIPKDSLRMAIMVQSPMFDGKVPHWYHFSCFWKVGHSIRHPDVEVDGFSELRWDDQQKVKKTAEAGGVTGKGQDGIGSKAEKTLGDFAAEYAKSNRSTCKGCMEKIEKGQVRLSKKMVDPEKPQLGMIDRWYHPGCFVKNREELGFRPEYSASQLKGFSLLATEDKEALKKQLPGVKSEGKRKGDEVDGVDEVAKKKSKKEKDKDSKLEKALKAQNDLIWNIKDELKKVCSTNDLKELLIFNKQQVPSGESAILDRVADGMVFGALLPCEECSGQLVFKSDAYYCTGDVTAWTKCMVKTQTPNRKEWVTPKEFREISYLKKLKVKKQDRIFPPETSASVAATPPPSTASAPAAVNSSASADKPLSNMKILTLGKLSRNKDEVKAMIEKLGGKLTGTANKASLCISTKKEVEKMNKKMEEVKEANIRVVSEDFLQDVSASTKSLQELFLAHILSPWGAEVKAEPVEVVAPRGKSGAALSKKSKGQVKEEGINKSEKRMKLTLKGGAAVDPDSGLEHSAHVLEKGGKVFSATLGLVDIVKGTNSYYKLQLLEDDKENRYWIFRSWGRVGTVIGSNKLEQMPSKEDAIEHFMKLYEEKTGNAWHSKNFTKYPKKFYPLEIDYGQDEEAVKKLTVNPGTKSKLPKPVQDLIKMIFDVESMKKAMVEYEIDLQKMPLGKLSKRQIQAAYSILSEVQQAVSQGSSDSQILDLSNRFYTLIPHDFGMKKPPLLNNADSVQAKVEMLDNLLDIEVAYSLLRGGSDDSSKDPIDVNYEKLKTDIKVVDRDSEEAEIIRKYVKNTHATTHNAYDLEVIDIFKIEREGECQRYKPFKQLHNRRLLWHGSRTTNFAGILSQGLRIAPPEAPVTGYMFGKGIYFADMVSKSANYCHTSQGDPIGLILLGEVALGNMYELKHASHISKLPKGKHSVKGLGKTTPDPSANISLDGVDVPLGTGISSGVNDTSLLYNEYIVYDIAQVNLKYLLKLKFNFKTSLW
Procedure: as §4

A549 = test: MTT assay, anti-proliferative effect on A549 cells; format: cell-based, human; details: Homo sapiens, A549, 72 h, read-out: IC50 A549
Procedure: as §1, §2

HPAEpiC = test: Selectivity index (SI) versus HPAEpiC normal cells; format: cell-based; details: SI = CC50/IC50; Human normal alveolar epithelial cells; means ± SD
HIEC = test: Selectivity index (SI) versus HIEC normal cells; format: cell-based; details: SI = CC50/IC50; Human normal intestinal epithelial cells; means ± SD
[1] = system: Cleaved-Caspase 3 and Caspase 3; test: Western blot of Caspase 3 and Cleaved-Caspase 3 in A549 cells; format: cell-based, human
Procedure: Meanwhile, we also detected the expression of Cleaved-Caspase 3 and Caspase 3 after different treatment concentrations to explore the mechanism of compound 11b inducing cell apoptosis.
as §3

OVCAR-3 = test: MTT assay, anti-proliferative effect on OVCAR-3 cells; format: cell-based, human; details: Homo sapiens, OVCAR-3, 72 h, read-out: IC50 OVCAR-3
Procedure: as §1, §2

HTB-125 = test: Selectivity index (SI) versus HTB-125 normal cells; format: cell-based; details: SI = CC50/IC50; Human normal breast cell; means ± SD

OC1CCN(Cc2cn(-c3ccccc3F)nn2)C2(CCCCC2)c2ccccc21 (centres unmarked) [Compound 11b, 2-((1-(2-fluorophenyl)-1 H-1,2,3-triazol-4-yl)methyl)-2,3,4,5-tetrahydrospiro[benzo[c]azepine-1,1’-cyclohexan]-5-ol]
IC50 (PARP-2): 32.6 ± 1.97 nM
SI IOSE80 (IOSE80): 10.57 ± 2.01
induction of apoptosis in A549 cells (A549 cells): induce apoptosis in a dose-dependent manner
IC50 (MCF-7): 9210 ± 2540 nM
IC50 (HCT-116): 7450 ± 1980 nM
biosynthesis of PAR (PAR): reduce the biosynthesis of PAR
IC50 (PARP-1): 19.2 ± 1.63 nM
IC50 (A549): 1950 ± 330 nM
SI HPAEpiC (HPAEpiC): 15.38 and 15.38 ± 0.97
SI HIEC (HIEC): 6.12 ± 1.76
expression of Caspase 3 [1]: decreased with the increase of compound 11b concentration
ratio of Cleaved-Caspase 3/Caspase 3 [1]: best at 4.0 µM
IC50 (OVCAR-3): 4020 ± 240 nM
SI HTB-125 (HTB-125): 7.06 ± 1.32
